Measurements reported in ChEMBL document CHEMBL5465560, “Selectivity Literature for EUbOPEN Chemogenomic Library” (2024).

Assays:
[1] = biological target: T1, Serine/threonine-protein kinase LATS2 (Homo sapiens) (UniProt Q9NRM7); assay: Selectivity interaction (KinomeScan (DiscoverX)) EUB0001049a LATS2; details: at 1 µM
T1 sequence (whole entry): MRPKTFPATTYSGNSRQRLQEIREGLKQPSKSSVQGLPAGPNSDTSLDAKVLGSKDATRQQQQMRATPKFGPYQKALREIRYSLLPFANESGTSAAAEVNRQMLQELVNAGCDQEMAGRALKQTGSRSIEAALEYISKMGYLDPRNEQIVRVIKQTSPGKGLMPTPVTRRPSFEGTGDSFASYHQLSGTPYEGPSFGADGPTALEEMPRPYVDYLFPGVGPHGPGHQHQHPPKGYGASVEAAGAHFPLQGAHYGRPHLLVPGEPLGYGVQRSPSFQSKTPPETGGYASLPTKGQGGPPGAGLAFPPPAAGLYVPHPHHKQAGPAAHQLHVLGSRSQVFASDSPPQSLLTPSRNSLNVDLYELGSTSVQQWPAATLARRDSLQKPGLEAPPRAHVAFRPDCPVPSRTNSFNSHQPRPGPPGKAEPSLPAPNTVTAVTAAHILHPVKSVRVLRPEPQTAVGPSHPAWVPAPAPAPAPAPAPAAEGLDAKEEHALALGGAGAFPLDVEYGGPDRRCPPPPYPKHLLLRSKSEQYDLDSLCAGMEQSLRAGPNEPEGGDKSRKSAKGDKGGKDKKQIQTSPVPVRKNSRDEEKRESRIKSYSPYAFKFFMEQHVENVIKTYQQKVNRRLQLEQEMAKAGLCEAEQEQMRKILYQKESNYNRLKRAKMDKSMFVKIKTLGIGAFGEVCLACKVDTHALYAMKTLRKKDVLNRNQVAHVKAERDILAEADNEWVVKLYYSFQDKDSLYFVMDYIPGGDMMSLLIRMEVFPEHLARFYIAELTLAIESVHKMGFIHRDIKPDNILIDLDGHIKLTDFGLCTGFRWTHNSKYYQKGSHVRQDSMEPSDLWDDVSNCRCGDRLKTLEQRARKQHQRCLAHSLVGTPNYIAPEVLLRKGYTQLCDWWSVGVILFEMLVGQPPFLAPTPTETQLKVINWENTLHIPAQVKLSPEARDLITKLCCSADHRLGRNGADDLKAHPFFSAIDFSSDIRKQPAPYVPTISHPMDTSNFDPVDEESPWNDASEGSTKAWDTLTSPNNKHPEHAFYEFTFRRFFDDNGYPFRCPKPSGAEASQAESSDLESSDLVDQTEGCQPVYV

[2] = biological target: Cyclin-dependent kinase 2 (Homo sapiens, UniProt P24941); assay: Selectivity interaction (KinomeScan (DiscoverX)) EUB0000092b CDK2; details: at 10 µM
[3] = biological target: T2, Casein kinase I isoform alpha-like (Homo sapiens) (UniProt Q8N752); assay: Selectivity interaction (KinomeScan (DiscoverX)) EUB0000618a CSNK1A1L; details: at 10 µM
T2 sequence (whole entry): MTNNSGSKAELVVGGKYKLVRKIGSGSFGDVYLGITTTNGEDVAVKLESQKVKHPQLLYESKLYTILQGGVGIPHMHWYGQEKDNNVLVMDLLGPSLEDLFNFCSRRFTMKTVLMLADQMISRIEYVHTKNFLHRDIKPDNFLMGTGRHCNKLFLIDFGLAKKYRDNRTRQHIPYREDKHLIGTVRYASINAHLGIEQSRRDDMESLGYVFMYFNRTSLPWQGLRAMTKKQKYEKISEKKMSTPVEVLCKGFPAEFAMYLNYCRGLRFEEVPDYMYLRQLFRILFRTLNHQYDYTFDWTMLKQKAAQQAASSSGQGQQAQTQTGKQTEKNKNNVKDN

[4] = biological target: T3, Cyclin-G-associated kinase (Homo sapiens) (UniProt O14976); assay: Selectivity interaction (Kinase panel (DSF assay)) EUB0001559a GAK
T3 sequence (whole entry): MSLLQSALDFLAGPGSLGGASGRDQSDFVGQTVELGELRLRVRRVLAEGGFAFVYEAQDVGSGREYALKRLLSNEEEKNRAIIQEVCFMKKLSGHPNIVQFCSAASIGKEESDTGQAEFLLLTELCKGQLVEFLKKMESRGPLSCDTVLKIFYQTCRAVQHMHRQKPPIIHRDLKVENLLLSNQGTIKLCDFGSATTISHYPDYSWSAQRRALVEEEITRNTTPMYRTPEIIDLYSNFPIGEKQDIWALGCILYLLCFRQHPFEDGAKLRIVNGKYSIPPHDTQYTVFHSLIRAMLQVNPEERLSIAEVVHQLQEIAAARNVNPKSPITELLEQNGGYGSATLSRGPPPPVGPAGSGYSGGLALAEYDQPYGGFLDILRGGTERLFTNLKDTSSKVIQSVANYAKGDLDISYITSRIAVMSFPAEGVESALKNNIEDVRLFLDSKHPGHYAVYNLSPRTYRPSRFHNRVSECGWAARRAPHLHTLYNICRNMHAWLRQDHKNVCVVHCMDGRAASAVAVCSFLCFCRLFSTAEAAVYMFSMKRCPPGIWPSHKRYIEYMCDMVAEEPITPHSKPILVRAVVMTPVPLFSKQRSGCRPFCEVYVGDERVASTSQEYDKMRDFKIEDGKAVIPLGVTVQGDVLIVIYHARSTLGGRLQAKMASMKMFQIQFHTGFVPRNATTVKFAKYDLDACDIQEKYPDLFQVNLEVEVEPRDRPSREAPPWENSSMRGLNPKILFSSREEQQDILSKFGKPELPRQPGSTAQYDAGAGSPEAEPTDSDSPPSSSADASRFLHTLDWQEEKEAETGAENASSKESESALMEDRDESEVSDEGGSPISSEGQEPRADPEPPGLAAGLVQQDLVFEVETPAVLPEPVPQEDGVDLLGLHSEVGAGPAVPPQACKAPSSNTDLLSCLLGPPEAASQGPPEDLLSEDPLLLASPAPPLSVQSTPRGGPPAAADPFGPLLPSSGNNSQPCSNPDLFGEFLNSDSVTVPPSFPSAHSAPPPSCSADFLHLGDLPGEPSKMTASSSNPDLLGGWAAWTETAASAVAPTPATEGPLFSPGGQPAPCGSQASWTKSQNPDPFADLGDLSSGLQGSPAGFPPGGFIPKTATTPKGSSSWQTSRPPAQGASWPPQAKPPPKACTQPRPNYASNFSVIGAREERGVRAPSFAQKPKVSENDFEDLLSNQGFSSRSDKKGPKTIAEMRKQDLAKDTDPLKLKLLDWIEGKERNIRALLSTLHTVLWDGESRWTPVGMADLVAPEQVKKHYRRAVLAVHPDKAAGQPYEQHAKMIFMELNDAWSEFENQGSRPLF

[5] = biological target: Tyrosine-protein kinase ABL2 (Homo sapiens, UniProt P42684); assay: Selectivity interaction (KinomeScan (DiscoverX)) EUB0000607a ABL2; details: at 10 µM
Chain of Tyrosine-protein kinase ABL2 (P42684 whole entry): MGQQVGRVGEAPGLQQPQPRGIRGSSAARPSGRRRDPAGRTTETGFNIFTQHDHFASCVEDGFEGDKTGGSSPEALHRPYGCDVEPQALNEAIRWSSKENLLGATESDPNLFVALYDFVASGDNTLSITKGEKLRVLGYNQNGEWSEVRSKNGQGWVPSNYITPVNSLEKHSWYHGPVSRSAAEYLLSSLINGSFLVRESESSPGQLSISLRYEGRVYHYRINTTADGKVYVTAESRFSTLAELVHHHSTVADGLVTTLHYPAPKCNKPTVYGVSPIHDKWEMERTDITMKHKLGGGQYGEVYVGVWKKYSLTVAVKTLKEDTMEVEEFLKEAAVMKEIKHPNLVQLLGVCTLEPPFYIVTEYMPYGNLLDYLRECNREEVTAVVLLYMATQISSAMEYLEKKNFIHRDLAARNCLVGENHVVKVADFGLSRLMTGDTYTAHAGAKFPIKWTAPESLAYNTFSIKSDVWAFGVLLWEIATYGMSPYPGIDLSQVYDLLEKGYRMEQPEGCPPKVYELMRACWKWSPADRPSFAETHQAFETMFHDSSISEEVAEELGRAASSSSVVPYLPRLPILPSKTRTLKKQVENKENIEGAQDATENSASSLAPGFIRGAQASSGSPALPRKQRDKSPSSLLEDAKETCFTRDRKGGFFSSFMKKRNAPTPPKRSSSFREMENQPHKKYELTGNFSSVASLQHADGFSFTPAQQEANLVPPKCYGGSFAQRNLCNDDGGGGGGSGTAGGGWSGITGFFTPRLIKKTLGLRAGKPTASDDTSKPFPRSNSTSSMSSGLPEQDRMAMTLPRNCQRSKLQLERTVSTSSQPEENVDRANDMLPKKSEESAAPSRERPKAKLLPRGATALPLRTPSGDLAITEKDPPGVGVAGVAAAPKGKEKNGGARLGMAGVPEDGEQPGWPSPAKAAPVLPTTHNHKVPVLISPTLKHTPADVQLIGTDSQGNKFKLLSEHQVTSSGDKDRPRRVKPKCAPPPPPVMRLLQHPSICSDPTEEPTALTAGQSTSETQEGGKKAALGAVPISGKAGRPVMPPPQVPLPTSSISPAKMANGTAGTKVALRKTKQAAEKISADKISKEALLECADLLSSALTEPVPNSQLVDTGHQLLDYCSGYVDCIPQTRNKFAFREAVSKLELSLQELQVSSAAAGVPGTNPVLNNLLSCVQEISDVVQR

In the case of COc1cc(Nc2nc(C)cc(-c3cnn4nc(OC)ccc34)n2)cc(C(F)(F)F)c1, the % of control [1] was 71%.
CCC(=O)N1CCN(c2ccc(-n3c(=O)ccc4cnc5ccc(-c6cnc7ccccc7c6)cc5c43)cc2C(F)(F)F)CC1 was tested, and the % of control [2] was 6.2%.
O[C@H]1CC[C@H](Nc2ncc3nc(Nc4c(F)cc(F)cc4F)n([C@H]4CCOC4)c3n2)CC1 was tested, and the % of control [3] was 55%.
Compound CN(C(=O)c1cnn2cccnc12)c1cc2c(cc1N1CCOCC1)C(=O)N(C[C@@H](F)C(C)(C)O)C2 has a dTM [4] of 0.1 K.
For CNC(=O)Nc1ccc(-c2nc(N3CC4CCC(C3)O4)c3cnn(C4CCC5(CC4)OCCO5)c3n2)cc1, the % of control [5] was 84%.
